Structures can show the parent of a compound that is named as a salt.
Assays:
HepG2 cells = assay: Cell status of HepG2 cells treated with sample (HBV screening); assay type: cell-based; details: 200 μg/ml, HepG2, four days after infection
[1] = system: LLC mouse Lewis lung carcinoma; assay: In vitro inhibition rate to tumor cells (MTT), LLC; assay type: cell-based; details: 50 μg/ml
[2] = system: SMMC-7721 human hepatic carcinoma; assay: In vitro inhibition rate to tumor cells (MTT), SMMC-7721; assay type: cell-based; details: 50 μg/ml
Hepatitis B virus (HBV) = assay type: cell-based
[3] = system: MCF-7 human mammary adenocarcinoma; assay: In vitro inhibition rate to tumor cells (MTT), MCF-7; assay type: cell-based; details: 50 μg/ml
[4] = system: Bel-7402 human hepatic carcinoma; assay: In vitro inhibition rate to tumor cells (MTT), Bel-7402; assay type: cell-based; details: 50 μg/ml
[5] = system: HL-60 human promyelocytic leukemia; assay: In vitro inhibition rate to tumor cells (MTT), HL-60; assay type: cell-based; details: 50 μg/ml
[6] = system: A-549 human lung adenocarcinoma; assay: In vitro inhibition rate to tumor cells (MTT), A-549; assay type: cell-based; details: 50 μg/ml
[7] = system: Hela human cervical carcinoma; assay: In vitro inhibition rate to tumor cells (MTT), Hela; assay type: cell-based; details: 50 μg/ml
[8] = system: U-937 human histocytic lymphoma; assay: In vitro inhibition rate to tumor cells (MTT), U-937; assay type: cell-based; details: 50 μg/ml
293 cells = assay: Cell status of 293 cells treated with sample alone (herpes virus screening)
[9] = Table 2 (repeated screening), hydrochloride

## CC(C)C1CC23OC1(O)C/C(=C\NC(C)(C)C)C2CCC3C (centres unmarked) [Compound 16, Curcumol t-butyl amine hydrochloride]
HepG2 cells
  Cell status: Normal
[1]; Table 1, hydrochloride
  inhibition rate, Results (%) LLC: 1.13%
[1]; [9]
  inhibition rate, Results (%) LLC: 0.22%
[2]; Table 1
  inhibition rate, Results (%) SMMC-7721: −2.50%
[2]; [9]
  inhibition rate, Results (%) SMMC-7721: 2.63%
Hepatitis B virus (HBV); 200 μg/ml, decrease of HBeAg relative to positive control
  (Value of the positive control - Measured Value) Value of the positive control × 100%: 73.81%
Hepatitis B virus (HBV); 200 μg/ml, supernatant four days after infection, positive control 1.917, negative 0.057
  OD450 of HBeAg: 0.502
Hepatitis B virus (HBV); primary screening, HBV e antigen, HepG2, 13 samples
  activity against HBV (in words): had the activity against HBV
[3]; Table 1, hydrochloride
  inhibition rate, Results (%) MCF-7: 54.89%
[3]; [9]
  inhibition rate, Results (%) MCF-7: 50.32%
[4]; Table 1, hydrochloride
  inhibition rate, Results (%) Bel-7402: 1.23%
[4]; [9]
  inhibition rate, Results (%) Bel-7402: 8.99%
[5]; Table 1, hydrochloride
  inhibition rate, Results (%) HL-60: 2.31%
[5]; [9]
  inhibition rate, Results (%) HL-60: 15.00%
[6]; Table 1, hydrochloride
  inhibition rate, Results (%) A-549: 6.01%
[6]; [9]
  inhibition rate, Results (%) A-549: 10.19%
[7]; Table 1, hydrochloride
  inhibition rate, Results (%) Hela: 68.99%
[7]; [9]
  inhibition rate, Results (%) Hela: 70.32%
[8]; Table 1, hydrochloride
  inhibition rate, Results (%) U-937: 82.56%
[8]; [9]
  inhibition rate, Results (%) U-937: 80.12%

## CC(C)C1CC23OC1(O)CC(C)(N1CCNCC1)C2CCC3C (centres unmarked) [Compound 43, Curcumol piperazine without double bond]
[1]; Table 1
  inhibition rate, Results (%) LLC: −2.06%
[1]; Table 2 (repeated screening)
  inhibition rate, Results (%) LLC: −11.23%
[2]; Table 1
  inhibition rate, Results (%) SMMC-7721: −10.12%
[2]; Table 2 (repeated screening)
  inhibition rate, Results (%) SMMC-7721: −8.98%
[3]; Table 1
  inhibition rate, Results (%) MCF-7: 43.21%
[3]; Table 2 (repeated screening)
  inhibition rate, Results (%) MCF-7: 41.94%
[4]; Table 1
  inhibition rate, Results (%) Bel-7402: 9.15%
[4]; Table 2 (repeated screening)
  inhibition rate, Results (%) Bel-7402: −4.98%
293 cells; 50 μg/ml, 293 cells without virus, 12 hrs
  Cytopathy and cell status, Sample: Good
[5]; Table 1
  inhibition rate, Results (%) HL-60: 2.56%
[5]; Table 2 (repeated screening)
  inhibition rate, Results (%) HL-60: 2.00%
[6]; Table 1
  inhibition rate, Results (%) A-549: 13.39%
[6]; Table 2 (repeated screening)
  inhibition rate, Results (%) A-549: 11.24%
[7]; Table 1
  inhibition rate, Results (%) Hela: 62.13%
[7]; Table 2 (repeated screening)
  inhibition rate, Results (%) Hela: 59.66%
[8]; Table 1
  inhibition rate, Results (%) U-937: 16.32%
[8]; Table 2 (repeated screening)
  inhibition rate, Results (%) U-937: 12.30%

## CC(C)C1CC23OC1(O)CC(=CO[N+](=O)[O-])C2CCC3C (centres unmarked) [Compound 19, Curcumol mononitrate]
[1]; Table 1
  inhibition rate, Results (%) LLC: −15.52%
[1]; Table 2 (repeated screening)
  inhibition rate, Results (%) LLC: −16.00%
[2]; Table 1
  inhibition rate, Results (%) SMMC-7721: 23.01%
[2]; Table 2 (repeated screening)
  inhibition rate, Results (%) SMMC-7721: 12.301%
[3]; Table 1
  inhibition rate, Results (%) MCF-7: 12.6%
[3]; Table 2 (repeated screening)
  inhibition rate, Results (%) MCF-7: 0.16%
[4]; Table 1
  inhibition rate, Results (%) Bel-7402: 4.32%
[4]; Table 2 (repeated screening)
  inhibition rate, Results (%) Bel-7402: 8.95%
293 cells; 200 μg/ml, 24 hrs
  Cytopathy and cell status, Sample: Apoptotic
[5]; Table 1
  inhibition rate, Results (%) HL-60: 54.03%
[5]; Table 2 (repeated screening)
  inhibition rate, Results (%) HL-60: 55.98%
[6]; Table 1
  inhibition rate, Results (%) A-549: 2.51%
[6]; Table 2 (repeated screening)
  inhibition rate, Results (%) A-549: 3.10%
[7]; Table 1
  inhibition rate, Results (%) Hela: 55.67%
[7]; Table 2 (repeated screening)
  inhibition rate, Results (%) Hela: 50.27%
[8]; Table 1
  inhibition rate, Results (%) U-937: 50.97%
[8]; Table 2 (repeated screening)
  inhibition rate, Results (%) U-937: 42.23%

## C=C1CC2(OC(=O)c3ccccc3)OC3(CC2C(C)C)C(C)CCC13 (centres unmarked) [Compound 4, Curcumol benzoate]
[1]; Table 1
  inhibition rate, Results (%) LLC: 1.01%
[1]; Table 2 (repeated screening)
  inhibition rate, Results (%) LLC: 0.23%
[2]; Table 1
  inhibition rate, Results (%) SMMC-7721: 5.30%
[2]; Table 2 (repeated screening)
  inhibition rate, Results (%) SMMC-7721: 1.96%
[3]; Table 1
  inhibition rate, Results (%) MCF-7: 49.23%
[3]; Table 2 (repeated screening)
  inhibition rate, Results (%) MCF-7: 50.09%
[4]; Table 1
  inhibition rate, Results (%) Bel-7402: 43.21%
[4]; Table 2 (repeated screening)
  inhibition rate, Results (%) Bel-7402: 43.02%
293 cells; 200 μg/ml, 24 hrs
  Cytopathy and cell status, Sample: Good
[5]; Table 1
  inhibition rate, Results (%) HL-60: 42.1%
[5]; Table 2 (repeated screening)
  inhibition rate, Results (%) HL-60: 40.01%
[6]; Table 1
  inhibition rate, Results (%) A-549: 10.51%
[6]; Table 2 (repeated screening)
  inhibition rate, Results (%) A-549: 14.03%
[7]; Table 1
  inhibition rate, Results (%) Hela: 73.22%
[7]; Table 2 (repeated screening)
  inhibition rate, Results (%) Hela: 70.12%
[8]; Table 1
  inhibition rate, Results (%) U-937: 52.23%
[8]; Table 2 (repeated screening)
  inhibition rate, Results (%) U-937: 51.00%

— US7700584B2 (Hangzhou Minsheng Pharmaceuticals Co., Ltd., priority 2004, dated 2010)
